What was measured:
P2 receptor = conditions: conventional antagonist, stated shortcoming; cited from earlier work
mouse P2X1 receptor = target: T1, mouse P2X1 receptor (Mus musculus, UniProt P51576); experiment: Two-electrode voltage clamp, ATP-induced ion current in Xenopus oocytes expressing mouse P2X1; format: cell-based; conditions: Table 2; 10 μM compound; ion current induced by 2 μM ATP; mean ± SEM, n = 4; read-out: % inhibition mP2X1
T1 construct: EST clones containing full-length cDNAs of mouse P2X1 (clone ID: 4189541) and human P2X7 receptor (clone ID: 5286944); host or cells: Xenopus oocytes (cRNA injected)
T1 sequence (P51576 1-399): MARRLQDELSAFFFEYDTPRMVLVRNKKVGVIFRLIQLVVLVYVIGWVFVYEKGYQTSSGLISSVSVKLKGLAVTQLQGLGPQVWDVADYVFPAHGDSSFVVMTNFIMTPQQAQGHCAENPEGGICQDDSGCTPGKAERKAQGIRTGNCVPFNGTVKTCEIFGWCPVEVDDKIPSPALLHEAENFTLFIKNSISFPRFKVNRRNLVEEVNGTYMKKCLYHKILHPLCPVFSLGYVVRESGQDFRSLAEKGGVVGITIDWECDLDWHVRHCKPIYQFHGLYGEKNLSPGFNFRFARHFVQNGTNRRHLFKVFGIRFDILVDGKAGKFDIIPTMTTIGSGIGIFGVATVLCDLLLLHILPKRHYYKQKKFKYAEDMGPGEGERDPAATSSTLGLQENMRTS
Description: 1-1. Antagonistic Activity at Recombinant Mouse P2X1 and Human P2X3 Receptors
(§1) Xenopus oocytes were harvested and prepared with method as previously described in publications. Defolliculated oocytes were injected cytosolically with mouse P2X1 and human P2X3 receptor cRNA ([…], 1 μg/mL), respectively, incubated for 24 hrs at 18° C. in Barth's solution and kept for up to 12 days at 4° C. until used in electrophysiological experiments. ATP-activated membrane currents (Vh=−70 mV) were recorded from cRNA-injected oocytes using the twin-electrode voltage-clamp technique (Axoclamp 2B amplifier). Voltage recording (1-2 MΩ tip resistance) and current-recording microelectrodes (5 MΩ tip resistance) were filled with 3.0 M KCl. Oocytes were held in an electrophysiological chamber and superfused with Ringer's solution (5 mL/min, at 18° C.) containing (mM) NaCl, 110; KCl, 2.5; HEPES, 5; BaCl2, 1.8, adjusted to pH 7.5. ATP was superfused over the oocytes for 60-120s then washed out for a period of 20 min. For inhibition curves, data were normalized to the current evoked by ATP, at pH 7.5. Test substances were added for 20 min prior to ATP exposure; all peptides were tested for reversibility of their effects. The concentration required to inhibit the ATP response by 50% (IC50) was taken from Hill plots constructed using the formula: log(I/Imax−1), where I is the current evoked by ATP in the presence of an antagonist. Data are presented as mean±SEM (n=4) for the data from different batches of oocytes.

human P2X7 receptor = target: T2, human P2X7 receptor (Homo sapiens, UniProt Q99572); experiment: Ethidium+ accumulation assay in human P2X7-expressing HEK293 cells; format: cell-based; conditions: 10 μM compound, ethidium+ accumulation induced by 6 μM BzATP, n = 3
T2 construct: EST clones containing full-length cDNAs of mouse P2X1 (clone ID: 4189541) and human P2X7 receptor (clone ID: 5286944); host or cells: HEK293
T2 sequence (Q99572 1-595): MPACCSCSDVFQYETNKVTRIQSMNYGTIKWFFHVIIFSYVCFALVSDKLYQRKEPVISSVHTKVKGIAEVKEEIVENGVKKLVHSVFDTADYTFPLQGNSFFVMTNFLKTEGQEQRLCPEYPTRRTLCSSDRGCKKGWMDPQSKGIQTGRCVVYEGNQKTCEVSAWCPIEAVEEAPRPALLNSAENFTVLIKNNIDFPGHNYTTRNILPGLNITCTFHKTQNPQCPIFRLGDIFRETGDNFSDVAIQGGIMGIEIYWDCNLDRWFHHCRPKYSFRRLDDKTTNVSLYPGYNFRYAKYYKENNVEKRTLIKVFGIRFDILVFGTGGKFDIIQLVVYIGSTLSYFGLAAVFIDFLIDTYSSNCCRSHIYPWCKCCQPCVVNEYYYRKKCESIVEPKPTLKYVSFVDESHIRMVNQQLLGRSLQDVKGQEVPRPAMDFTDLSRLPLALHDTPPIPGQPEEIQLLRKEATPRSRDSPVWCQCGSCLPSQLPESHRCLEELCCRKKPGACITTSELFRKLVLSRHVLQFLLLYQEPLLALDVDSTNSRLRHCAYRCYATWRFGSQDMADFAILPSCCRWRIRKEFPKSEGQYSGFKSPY
Description: 1-2. Ethidium^+ Accumulation Assay at Human P2X7 Receptors
Human P2X7-expressing HEK293 cells were grown as monolayer culture at 37° C. in a humidified atmosphere of 5% CO2, DMEM supplemented with 10% fetal bovine serum. Cells were harvested with treatment of Trypsin/EDTA solution, collected by centrifugation (200 g for 5 min).
The cells were resuspended at 2.5×10^6 cells/mL in assay buffers, consisting of (in mM) HEPES 10, KCl 140, glucose 5, EDTA 1 (pH 7.4), and then ethidium bromide (100 μM) was added. Cell suspensions were added to 96 well plates containing the P2X7 receptor agonist, ATP or BzATP, at 2×10^5 cells/wells. Plates were incubated at 37° C. for 120 min and cellular accumulation of ethidium^+ was determined by measuring fluorescence with Bio-Tek instrument FL600 fluorescent plate reader (excitation wavelength of 530 nm and emission wavelength of 590 nm). When the effects of antagonists, such as PPADS, KN62, and test peptides were studied, antagonists were treated together with agonist without pre-incubation.

human P2X3 receptor = target: T3, human P2X3 receptor (Homo sapiens, UniProt P56373); experiment: Two-electrode voltage clamp, ATP-induced ion current in Xenopus oocytes expressing human P2X3; format: cell-based; conditions: Table 2; 10 μM compound; ion current induced by 2 μM ATP; mean ± SEM, n = 4; read-out: % inhibition hP2X3
T3 construct: expressed in transfected cells; host or cells: Xenopus oocytes (cRNA injected); cDNA from the Max-Planck Institute laboratory (Dr. W. Stuhmer and Dr. F. Soto)
T3 sequence (P56373 1-397): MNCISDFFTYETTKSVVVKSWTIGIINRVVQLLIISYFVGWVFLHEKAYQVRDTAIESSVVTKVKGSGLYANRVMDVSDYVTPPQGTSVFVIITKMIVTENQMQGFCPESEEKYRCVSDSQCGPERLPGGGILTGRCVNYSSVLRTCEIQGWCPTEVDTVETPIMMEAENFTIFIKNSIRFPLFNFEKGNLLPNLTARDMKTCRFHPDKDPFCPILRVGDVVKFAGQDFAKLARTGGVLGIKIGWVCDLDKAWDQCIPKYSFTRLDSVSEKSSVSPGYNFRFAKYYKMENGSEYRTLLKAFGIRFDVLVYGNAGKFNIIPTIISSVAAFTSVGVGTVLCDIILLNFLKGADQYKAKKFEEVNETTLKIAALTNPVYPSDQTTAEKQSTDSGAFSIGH
Description: Antagonistic Activity at Recombinant Mouse P2X1 and Human P2X3 Receptors
as §1

inhibition at 10 µM (mouse P2X1 receptor) [%] | % inhibition hP2X7 (human P2X7 receptor) | inhibition at 10 µM (human P2X3 receptor) [%] | Compound | reversibility of blocking activity (P2 receptor)
– | – | – | Cc1nc(N=Nc2ccc(S(=O)(=O)O)cc2S(=O)(=O)O)c(COP(=O)(O)O)c(C=O)c1O [PPADS, pyridoxalphosphate-6-azophenyl-2′,4′-disulphonic acid] | irreversible blocking activity
52.4 ± 6.2 | inactive | 39.3 ± 3.8 | COc1cccc(CCc2nc(C)c(O)c(C(=O)O)c2C(=O)O)c1 [Compound 40, 5-Hydroxy-2-[2-(3-methoxy-phenyl)-ethyl]-6-methyl-pyridine-3,4-dicarboxylic acid] | –
11.4 ± 3.3 | inactive | 6.3 ± 2.3 | COc1ccccc1/C=C/c1nc(C)c(O)c(C(C)=O)c1C(=O)O [Compound 49, (E)-4-acetyl-5-hydroxy-2-(2-methoxystyryl)-6-methylnicotinic acid] | –

— patent US9546139B2, “Pyridine carboxylic acid based compound used as a P2X1 and P2X3 receptor antagonist, a production method for the same and a composition comprising the same” (GWANGJU INSTITUTE OF SCIENCE AND TECHNOLOGY, priority 2010, dated 2017)
